Where only a bound is given, the exact number is not on record here.

In data set [1] the target is T1, TGF-beta receptor type-1 (Homo sapiens, UniProt P36897).
T1 sequence (P36897 whole entry): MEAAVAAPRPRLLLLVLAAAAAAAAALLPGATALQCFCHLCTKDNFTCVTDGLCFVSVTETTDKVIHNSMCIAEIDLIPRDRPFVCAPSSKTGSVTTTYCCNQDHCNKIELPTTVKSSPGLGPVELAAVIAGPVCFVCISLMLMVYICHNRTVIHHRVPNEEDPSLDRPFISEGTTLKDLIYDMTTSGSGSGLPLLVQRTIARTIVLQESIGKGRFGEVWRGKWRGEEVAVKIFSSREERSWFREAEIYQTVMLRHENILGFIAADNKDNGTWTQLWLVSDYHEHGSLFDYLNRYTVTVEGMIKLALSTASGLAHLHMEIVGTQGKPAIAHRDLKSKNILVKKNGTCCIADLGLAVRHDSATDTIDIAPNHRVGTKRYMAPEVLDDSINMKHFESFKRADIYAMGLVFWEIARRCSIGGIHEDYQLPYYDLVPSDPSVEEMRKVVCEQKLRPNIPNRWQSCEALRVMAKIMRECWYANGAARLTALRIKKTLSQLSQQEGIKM
Nature of the data set: Inhibition of TGFbetaR1 (unknown origin) in presence of ATP.

For data set [2], the species on record is Homo sapiens. Nature of the data set: Selectivity ratio of IC50 for p38alpha (unknown origin) to IC50 for TGFbetaR1 (unknown origin).
The target in data set [3] is Mitogen-activated protein kinase 14 (Homo sapiens, UniProt Q16539). Nature of the data set: Inhibition of p38alpha (unknown origin) measured after 40 mins in presence of [gamma-33P]ATP by microbeta liquid scintillation counting analysis. In kind it is toxicity.
Chain of Mitogen-activated protein kinase 14 (Q16539 whole entry): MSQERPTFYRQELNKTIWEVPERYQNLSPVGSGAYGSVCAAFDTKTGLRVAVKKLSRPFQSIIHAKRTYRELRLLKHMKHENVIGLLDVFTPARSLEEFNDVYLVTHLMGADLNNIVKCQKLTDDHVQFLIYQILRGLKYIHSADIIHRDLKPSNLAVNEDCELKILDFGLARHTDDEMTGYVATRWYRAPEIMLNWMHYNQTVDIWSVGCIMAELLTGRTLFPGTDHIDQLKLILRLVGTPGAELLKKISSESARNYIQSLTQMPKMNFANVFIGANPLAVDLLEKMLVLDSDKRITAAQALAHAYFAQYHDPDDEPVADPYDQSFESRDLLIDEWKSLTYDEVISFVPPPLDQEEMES
The nature of data set [4]: Apparent permeability across apical to basolateral side in dog MDCK-MDR1 cells at 2 uM measured over 150 mins by LC-MS/MS analysis. The data set is classed as ADME, cell-based, Canis lupus familiaris.
For data set [5], the system named is MDR1. Nature of the data set: Efflux ratio of apparent permeability in dog MDCK-MDR1 cells at 2 uM measured over 150 mins by LC-MS/MS analysis. In kind it is ADME, cell-based, Canis lupus familiaris.
Data set [6] in a line: Metabolic stability in human liver microsomes assessed as parent compound remaining at 1 uM preincubated for 5 mins followed by NADPH addition by LC-MS/MS analysis. The following applies: read-out: Stability. In kind it is ADME, Microsome.
For data set [7], the system named is NIH3T3. Kind of data set: Antiproliferative activity against mouse NIH/3T3 cells by celltitter-glo assay. In kind it is functional, cell-based.
Data set [8] in a line: Metabolic stability in mouse liver microsomes assessed as parent compound remaining at 1 uM preincubated for 5 mins followed by NADPH addition by LC-MS/MS analysis. In kind it is ADME, Microsome. The following applies: read-out: Stability.
Data set [9] in a line: Volume of distribution at steady state in CD-1 mouse at 1 mg/kg, iv by LC-MS/MS analysis. The data set is classed as ADME, organism-based. The settings on record: in vivo, read-out: Vdss.
Data set [10] can be described thus: Cmax in CD-1 mouse at 5 mg/kg, po via gavage by LC-MS/MS analysis. The data set is classed as ADME, organism-based. The settings on record: in vivo.
Data set [11] in a line: Half life in CD-1 mouse at 1 mg/kg, iv by LC-MS/MS analysis. In kind it is ADME, organism-based. The following applies: in vivo.
Data set [12] can be described thus: Oral bioavailability in CD-1 mouse at 5 mg/kg via gavage by LC-MS/MS analysis. The data set is classed as ADME, organism-based. The following applies: in vivo.
The nature of data set [13]: Half life in CD-1 mouse at 5 mg/kg, po via gavage by LC-MS/MS analysis. The following applies: in vivo. The data set is classed as ADME, organism-based.
Data set [14] is described as follows: AUC (0 to last) in CD-1 mouse at 5 mg/kg, po via gavage by LC-MS/MS analysis. In kind it is ADME, organism-based. The following applies: in vivo.
A short description of data set [15]: Clearance in CD-1 mouse at 1 mg/kg, iv by LC-MS/MS analysis. The data set is classed as ADME, organism-based. The settings on record: in vivo.

As for `Cc1cccc(-c2nn3c(c2-c2ccnc4c2CN(C(N)=O)CC4)CCC3)n1`, in data set [1], the IC50 was > 5000 nM.

In the case of `Cc1cccc(-c2nn3c(c2-c2ccc4nccn4c2/C=C/C(N)=O)CCC3)n1`, the IC50 in data set [1] amounted to 1020 nM.

Turning to `Cc1cccc(-c2nn3c(c2-c2ccnc(-c4cccc(C(N)=O)c4)c2)CCC3)n1`, the half-maximal inhibitory concentration (IC50) in [1] is 3460 nM.

For `Cc1cccc(-c2nn(C)c(C)c2-c2ccc3ncnn3c2/C=C/C(N)=O)n1`, the Ratio IC50 in [2] was > 40. Further, the concentration for half-maximal inhibition (IC50) was 253 nM in [1] and > 10 µM in [3].

As for `Cc1cccc(-c2nn3c(c2-c2ccc4ncnn4c2/C=C/C(=O)NCCO)CCC3)n1`, in data set [2], the Ratio IC50 was 24.6. The IC50 in data set [1] came to 281 nM; in data set [3], 6.9 µM.

Turning to `Cc1cccc(-c2nn3c(c2-c2ccc4ncnn4c2/C=C/C(=O)O)CCC3)n1`, the IC50 in data set [1] turned out to be 76.8 nM. The apical-to-basolateral permeability (Papp A→B) at 2.5 h, 2 µM in [4] amounted to 0.43 ×10⁻⁶ cm/s. In data set [5], the efflux ratio at 2.5 h, 2 µM is 1.46.

Take `Cc1cccc(-c2nn(Cc3cccc(C#N)c3)cc2-c2ccc3ncnn3c2C=CC(N)=O)n1`: the results for the remaining at 1 µM in [6] and in [8] were 56.2% and 9.8%, respectively. Besides, the IC50 was 223 nM in [1], > 3.33 µM in data set [3] and 1660 nM in data set [7].

On to `Cc1cccc(-c2nn3c(c2-c2ccnc(Nc4ccc(C(N)=O)cc4)c2)CCC3)n1`, for which the Ratio IC50 in data set [2] turned out to be 0.3. Further, the values for the IC50 in [1] and in data set [3] were 90.9 nM and 0.026 µM, respectively.

For `Cc1cccc(-c2nn3c(c2-c2ccc4ncnn4c2CCC(N)=O)CCC3)n1`, the IC50 in [1] came to 928 nM.

Turning to `Cc1cccc(-c2nn(C3CCCC3)cc2-c2ccc3ncnn3c2/C=C/C(N)=O)n1`, the 50% inhibitory concentration (IC50) in [1] worked out at 276 nM.

With `CCc1cccc(-c2nn3c(c2-c2ccc4ncnn4c2/C=C/C(N)=O)CCC3)n1`, the Ratio IC50 in [2] worked out at 12.8. The IC50 in data set [1] turned out to be 420 nM; in [3], 5.38 µM.

For the compound `Cc1cccc(-c2nn3c(c2-c2ccc4ncsc4c2/C=C/C(N)=O)CCC3)n1`, in data set [2], the Ratio IC50 is 2.3. The half-inhibitory concentration (IC50) was 207 nM in data set [1] and 0.476 µM in data set [3].

For the compound `Cc1cccc(-c2nn3c(c2-c2ccnc(NC4CCN(C(N)=O)CC4)c2)CCC3)n1`, the IC50 in data set [1] was > 5000 nM.

Regarding `Cc1cc(C)nc(-c2nn3c(c2-c2ccc4ncnn4c2/C=C/C(N)=O)CCC3)c1`, the IC50 in data set [1] worked out at 3240 nM.

On to `Cc1cccc(-c2nn3c(c2-c2cn(C)c(=O)c4ccc(C(N)=O)cc24)CCC3)n1`, for which, in data set [1], the concentration for half-maximal inhibition (IC50) is > 5000 nM.

With `Cc1cccc(-c2nn3c(c2-c2ccnc(Nc4ccc(S(N)(=O)=O)cc4)c2)CCC3)n1`, the Ratio IC50 in data set [2] worked out at 0.2. Moreover, the half-maximal inhibitory concentration (IC50) in [1] is 82.6 nM; in [3], 0.015 µM.

As to `Cc1cccc(-c2nn3c(c2-c2ccc4ncnn4c2CNc2cc[nH]n2)CCC3)n1`, in [2], the Ratio IC50 is > 27.4. Further, the IC50 in data set [1] is 365 nM; in data set [3] it was > 10 µM.

For `CCOC(=O)/C=C/c1c(-c2c(-c3cccc(C)n3)nn3c2CCC3)ccc2ncnn12`, the IC50 in [1] was determined as 324 nM; in data set [3], 5.91 µM. For the same compound, in [4], the apparent permeability from apical to basolateral (Papp A→B) at 2.5 h, 2 µM was 19.4 ×10⁻⁶ cm/s.

As for `Cc1cccc(-c2nn3c(c2-c2ccnc4ccc(C(N)=O)cc24)CCC3)n1` [GALUNISERTIB], the 50% inhibitory concentration (IC50) in data set [3] turned out to be 0.783 µM.

Take `Cc1cccc(-c2nn3c(c2-c2ccc(F)c4c2CN(C(N)=O)CC4)CCC3)n1`: the IC50 in [1] is > 5000 nM.

Consider `Cc1cccc(-c2nn3c(c2-c2ccc4ncnn4c2CN2CC(O)C2)CCC3)n1`, for which the IC50 in data set [1] is > 5000 nM.

`CCNC(=O)/C=C/c1c(-c2c(-c3cccc(C)n3)nn3c2CCC3)ccc2ncnn12`: the Ratio IC50 in data set [2] was 15.2. Moreover, the IC50 in [1] came out at 312 nM; in data set [3], 4.75 µM.

Turning to `Cc1cccc(-c2nn3c(c2-c2ccc4ncccc4c2/C=C/C(N)=O)CCC3)n1`, the 50% inhibitory concentration (IC50) in data set [1] stood at 971 nM.

For the compound `CNC(=O)/C=C/c1c(-c2c(-c3cccc(C)n3)nn3c2CCC3)ccc2ncnn12`, the Ratio IC50 in data set [2] is > 13. For the same compound, the IC50 in [1] was 248 nM; in [3], > 3.33 µM.

As for `Cc1cccc(-c2nn3c(c2-c2ccc4ncnn4c2/C=C/C(N)=O)CCCC3)n1`, in [2], the Ratio IC50 is 11.6. Further, the IC50 is 136 nM in data set [1] and 1.58 µM in [3].

On to `Cc1cccc(-c2nn3c(c2-c2ccc4ncnn4c2/C=C/C(=O)NO)CCC3)n1`, for which the remaining at 1 µM in data set [6] came out at 42.5%; in [8], 41.6%. Further, the Ratio IC50 in data set [2] is > 80. Also, the IC50 in data set [1] was 41.2 nM; in [3] it was > 3.33 µM. Moreover, in [4], the Papp A→B at 2.5 h, 2 µM turned out to be 0.15 ×10⁻⁶ cm/s. Also, the efflux ratio at 2.5 h, 2 µM in [5] was found to be 43.4.

For the compound `Cc1cccc(-c2nn3c(c2-c2ccc4ncnn4c2C(N)=O)CCC3)n1`, in data set [1], the concentration for half-maximal inhibition (IC50) came out at 4290 nM.

As for `Cc1cccc(-c2nn(Cc3cccc(C(F)F)c3)cc2-c2ccc3ncnn3c2/C=C/C(N)=O)n1`, the remaining at 1 µM in [6] amounted to 9.5%; in data set [8], 0%. In addition, the IC50 in [1] came out at 164 nM; in [3] it was 2.05 µM; in data set [7] it was 900 nM.

As for `Cc1cccc(-c2nn3c(c2-c2ccc4ncnn4c2/C=C/C(=O)NC2CC2)CCC3)n1`, the Ratio IC50 in data set [2] was 18.6. Besides, the values for the IC50 in data set [1] and in data set [3] were 279 nM and 5.21 µM, respectively.

Consider `Cc1nc(-c2nn3c(c2-c2ccc4ncnn4c2/C=C/C(N)=O)CCC3)ccc1Cl`, for which, in data set [1], the IC50 is 4890 nM.

For `Cc1cccc(-c2nn3c(c2-c2ccc4ncnn4c2/C=C/C(C)(C)O)CCC3)n1`, in [9], the Vd turned out to be 0.849 L/kg. Moreover, in [10], the Cmax is recorded as 170 nM/ml. The remaining at 1 µM in data set [6] amounted to 54.8%; in [8] it was 7.8%. The figures for the half-life in data set [11] and in [13] were 7.74 min and 50.5 min, respectively. In addition, the results for the IC50 in [1], in data set [3] and in data set [7] were 83 nM, > 10 µM and 1620 nM, respectively. The compound further displayed a bioavailability in data set [12] of 5.48%. This compound came in with an AUClast in [14] of 104 nM.hr/ml. In addition, in data set [15], the clearance was 105 mL/min/kg. The Papp A→B at 2.5 h, 2 µM in [4] was 8.48 ×10⁻⁶ cm/s. The efflux ratio at 2.5 h, 2 µM in [5] was found to be 6.12.

`Cc1cccc(-c2nn(C(C)C)cc2-c2ccc3ncnn3c2/C=C/C(N)=O)n1`: in data set [1], the IC50 turned out to be 423 nM.

Regarding `Cc1cccc(-c2nn3c(c2-c2ccc4ncnn4c2CN2CCNC(=O)C2)CCC3)n1`, in [1], the half-maximal inhibitory concentration (IC50) was > 5000 nM.

The record behind these values is ChEMBL document CHEMBL6182942, “Discovery of a Selective, Novel TGF-βR1 Inhibitor GFH018 for the Treatment of Solid Tumors” (J Med Chem, 2025).
